In assay [1] the target is T1, CRISP2^L98G Y99P (Homo sapiens, UniProt P16562, L98G/Y99P).
T1 construct: made in house; host or cells: E. coli
T1 sequence (P16562 22-243 L98G/Y99P): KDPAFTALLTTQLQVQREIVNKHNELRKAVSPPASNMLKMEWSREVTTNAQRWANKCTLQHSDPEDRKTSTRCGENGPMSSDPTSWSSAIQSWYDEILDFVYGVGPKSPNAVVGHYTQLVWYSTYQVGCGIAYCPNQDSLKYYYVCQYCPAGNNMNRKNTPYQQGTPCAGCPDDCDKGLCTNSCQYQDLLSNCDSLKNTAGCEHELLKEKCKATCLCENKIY
As to the kind of experiment: MST binding to CRISP2 double mutant L98G Y99P. On the set-up: species or system mammalian. How it is done:
(§1) Next, we generated all three double mutant combinations of CRISP2: N97P L98G, N97P Y99P, and L98G Y99P. These three double mutant versions of CRISP2 were again expressed as His-tagged proteins in E. coli and purified, and their capacity to bind sterols in the presence or absence of PSP94 was assessed by MST. […] The capacity of the CRISP2^L98G Y99P double mutant to bind sterols even in the presence of PSP94 was confirmed by the in vivo sterol export assay (Fig. 6, A and B). When expressed in yeast cells, the CRISP2^L98G Y99P double mutant was stably expressed and secreted as monitored by Western blotting (Fig. 6C).
(§2) MST experiments were performed to assess protein–protein, protein–lipid, and protein–calcium interactions using a Monolith NT.115 (Nanotemper Technologies). Proteins were labeled using the RED-tris-NTA His tag protein labeling kit. Labeled CAP proteins, 100 nM, were mixed with a serial dilution of unlabeled PSP94, PSP9^F24G, cholesterol sulfate, or calcium chloride, prepared in binding buffer (20 mM Tris pH 7.5, 30 mM NaCl, 0.05% Triton X-100). Samples were loaded into MST standard capillaries, and MST measurements were performed using an 80% laser power setting. The dissociation constant Kd was obtained by plotting the normalized fluorescence (Fnorm) against the logarithm of ligand concentration. Experiments were performed in triplicates, and data were fitted using the Kd model of the MO.Affinity Analysis software (Nanotemper Technologies). For binding inhibition studies, CAP proteins and PSP94 were preincubated for 5 min at 24 °C before performing binding studies with cholesterol sulfate.

Assay [2] addresses T2, CRISP2^N97P L98G (Homo sapiens, UniProt P16562, L98G/N97P).
T2 construct: made in house; host or cells: E. coli
T2 sequence (P16562 22-243 N97P/L98G): T1 sequence (P16562 22-243 L98G/Y99P) with N76P, P78Y
Put plainly: MST binding to CRISP2 double mutant N97P L98G. The settings on record: absence of PSP94, read-out: Kd, sterol binding by CRISP2^N97P L98G. Also on record: species or system mammalian. The protocol: as §1
as §2, with “Experiments were performed in triplicates, and data were fitted using the Kd model of the MO.Affinity Analysis software (Nanotemper Technologies). For binding inhibition studies, CAP proteins and PSP94 were preincubated for 5 min at 24 °C before performing binding studies with cholesterol sulfate.” left out

Each structure is given as a SMILES string. Substitutions are numbered along the chain they refer to. Where a name gives a salt, the structure may show the parent alone. Read-outs that look alike come from different tables or passages of the source.

Take `CC(C)CCC[C@@H](C)[C@H]1CC[C@H]2[C@@H]3CC=C4C[C@@H](OS(=O)(=O)O)CC[C@]4(C)[C@H]3CC[C@]12C` [cholesterol sulfate]: the dissociation constant (Kd) in assay [1] (+PSP94, read-out: Kd, sterol binding by CRISP2^L98G Y99P in presence of PSP94) is 0.5 µM; in assay [1] (PSP94^F24G preincubated 5 min at 24 °C, read-out: Kd, sterol binding by CRISP2^L98G Y99P in presence of PSP94^F24G), 4.5 ± 2.08 µM; in assay [1] (absence of PSP94, read-out: Kd, sterol binding by CRISP2^L98G Y99P), 2.2 ± 1.7 µM; in assay [2] it was 3.8 ± 1.9 µM.

One may read the Kd as a measure of binding affinity in units of concentration.

The values are drawn from article PMC8857485, “Prostate secretory protein 94 inhibits sterol binding and export by the mammalian CAP protein CRISP2 in a calcium-sensitive manner” (The Journal of Biological Chemistry, 2022).
